Source: US5658924A, “1,8-naphthyridin-2-one derivative and use thereof” (The Green Cross Corporation, priority 1995, dated 1997)

Key:
[1] = test system: histamine-induced contraction of bronchial specimen; test: Suppression of histamine-induced contraction of bronchial specimen extracted from guinea pig; design: species or system guinea pig (male Hartley); details: histamine 3 μM
Protocol: (§1) Suppression of histamine or leukotriene D4 -induced contraction of bronchial specimen extracted from guinea pig
(§2) Male Hartley guinea pigs weighing 250-450 g were fainted by hitting in the head and exsanguinated to death. The trachea was removed and ring specimens were prepared by a conventional method. The specimens were kept at 37° C. and suspended in a Krebs-Ringer solution (10 ml) aerated with a 95% O2 -5% CO2 mixed gas, and isometric tension was measured. The specimens were contracted with histamine (3 μM) or leukotriene D4 (1 nM). When the reaction became stable, a drug dissolved in dimethyl sulfoxide was added to the Kreb's Ringer solution. The relaxation ratio was calculated based on the base line before the contraction, which was taken as 100% relaxation.

PDE isozyme II = molecular target: T1, PDE isozyme II (Sus scrofa, UniProt F1SUV3); test: Inhibition of PDE (isozyme II); assay type: biochemical; details: pig ventricular muscle, [3H]-cAMP substrate; read-out: PDE Inhibitory activity (IC5 :μM), PDE isozyme II
T1 construct: centrifugation supernatant of the homogenate of pig ventricular muscle; from tissue; host or cells: pig ventricular muscle, supernatant of homogenate, DEAE-cellulose fraction
T1 sequence (F1SUV3 1-945): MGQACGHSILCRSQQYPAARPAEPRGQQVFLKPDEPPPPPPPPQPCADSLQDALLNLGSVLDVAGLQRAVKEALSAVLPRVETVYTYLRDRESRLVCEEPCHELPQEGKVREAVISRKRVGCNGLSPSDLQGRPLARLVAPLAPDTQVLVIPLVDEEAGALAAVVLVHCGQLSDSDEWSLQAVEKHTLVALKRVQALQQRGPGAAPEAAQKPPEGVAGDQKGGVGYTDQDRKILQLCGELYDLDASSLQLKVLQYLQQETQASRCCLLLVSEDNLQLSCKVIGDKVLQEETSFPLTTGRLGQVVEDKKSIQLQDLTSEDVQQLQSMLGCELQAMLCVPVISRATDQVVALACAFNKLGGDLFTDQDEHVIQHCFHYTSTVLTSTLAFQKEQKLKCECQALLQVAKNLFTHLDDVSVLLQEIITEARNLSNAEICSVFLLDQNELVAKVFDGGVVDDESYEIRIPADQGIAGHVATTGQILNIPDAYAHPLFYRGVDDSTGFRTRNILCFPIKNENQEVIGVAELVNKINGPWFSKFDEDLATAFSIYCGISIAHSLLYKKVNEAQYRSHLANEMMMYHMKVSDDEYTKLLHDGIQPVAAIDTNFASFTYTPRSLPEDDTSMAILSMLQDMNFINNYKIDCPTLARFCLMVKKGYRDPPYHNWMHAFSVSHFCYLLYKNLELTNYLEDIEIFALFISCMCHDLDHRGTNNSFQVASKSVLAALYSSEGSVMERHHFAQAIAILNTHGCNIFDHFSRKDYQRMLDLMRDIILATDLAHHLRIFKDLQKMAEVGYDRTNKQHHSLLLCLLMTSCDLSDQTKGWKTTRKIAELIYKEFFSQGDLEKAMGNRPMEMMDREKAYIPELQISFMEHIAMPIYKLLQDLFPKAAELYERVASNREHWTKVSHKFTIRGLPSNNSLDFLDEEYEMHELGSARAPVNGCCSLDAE
Protocol: (§3) Inhibition of PDE by 1,8-naphthyridin-2-one derivative
(§4) The centrifugation supernatant of the homogenate of pig ventricular muscle was separated into isozyme by ortho-(diethylaminoethyl)-cellulose chromatography and used as an enzyme source. Respective isozymes were confirmed by the reaction with respective activity regulators. [^3 H]-cAMP was used as a substrate and the reaction was carried out in the presence of 5'-nucleotidase. A sample was dissolved in dimethyl sulfoxide and added to the reaction mixture. [^3 H]-5'-AMP produced by PDE was decomposed into [^3 H]-adenosine by 5'-nucleotidase. An anion exchange resin was added to adsorb the unreacted [^3 H]-cAMP, whereby the reaction was stopped. The [^3 H]-adenosine radioactivity of the supernatant was determined, based on which the PDE inhibitory action was calculated.

PDE isozyme I = test: Inhibition of PDE (isozyme I); assay type: biochemical; details: pig ventricular muscle, [3H]-cAMP substrate; read-out: PDE Inhibitory activity (IC5 :μM), PDE isozyme I
Protocol: as §3, §4

PDE isozyme IV = test: Inhibition of PDE (isozyme IV); assay type: biochemical; details: pig ventricular muscle, [3H]-cAMP substrate; read-out: PDE Inhibitory activity (IC5 :μM), PDE isozyme IV
Protocol: as §3, §4

PDE isozyme III = molecular target: T2, PDE isozyme III (Sus scrofa, UniProt I3L6S5); test: Inhibition of PDE (isozyme III); assay type: biochemical; details: pig ventricular muscle, [3H]-cAMP substrate; read-out: PDE Inhibitory activity (IC5 :μM), PDE isozyme III
T2 construct: centrifugation supernatant of the homogenate of pig ventricular muscle; from tissue; host or cells: pig ventricular muscle, supernatant of homogenate, DEAE-cellulose fraction
T2 sequence (I3L6S5 1-1145): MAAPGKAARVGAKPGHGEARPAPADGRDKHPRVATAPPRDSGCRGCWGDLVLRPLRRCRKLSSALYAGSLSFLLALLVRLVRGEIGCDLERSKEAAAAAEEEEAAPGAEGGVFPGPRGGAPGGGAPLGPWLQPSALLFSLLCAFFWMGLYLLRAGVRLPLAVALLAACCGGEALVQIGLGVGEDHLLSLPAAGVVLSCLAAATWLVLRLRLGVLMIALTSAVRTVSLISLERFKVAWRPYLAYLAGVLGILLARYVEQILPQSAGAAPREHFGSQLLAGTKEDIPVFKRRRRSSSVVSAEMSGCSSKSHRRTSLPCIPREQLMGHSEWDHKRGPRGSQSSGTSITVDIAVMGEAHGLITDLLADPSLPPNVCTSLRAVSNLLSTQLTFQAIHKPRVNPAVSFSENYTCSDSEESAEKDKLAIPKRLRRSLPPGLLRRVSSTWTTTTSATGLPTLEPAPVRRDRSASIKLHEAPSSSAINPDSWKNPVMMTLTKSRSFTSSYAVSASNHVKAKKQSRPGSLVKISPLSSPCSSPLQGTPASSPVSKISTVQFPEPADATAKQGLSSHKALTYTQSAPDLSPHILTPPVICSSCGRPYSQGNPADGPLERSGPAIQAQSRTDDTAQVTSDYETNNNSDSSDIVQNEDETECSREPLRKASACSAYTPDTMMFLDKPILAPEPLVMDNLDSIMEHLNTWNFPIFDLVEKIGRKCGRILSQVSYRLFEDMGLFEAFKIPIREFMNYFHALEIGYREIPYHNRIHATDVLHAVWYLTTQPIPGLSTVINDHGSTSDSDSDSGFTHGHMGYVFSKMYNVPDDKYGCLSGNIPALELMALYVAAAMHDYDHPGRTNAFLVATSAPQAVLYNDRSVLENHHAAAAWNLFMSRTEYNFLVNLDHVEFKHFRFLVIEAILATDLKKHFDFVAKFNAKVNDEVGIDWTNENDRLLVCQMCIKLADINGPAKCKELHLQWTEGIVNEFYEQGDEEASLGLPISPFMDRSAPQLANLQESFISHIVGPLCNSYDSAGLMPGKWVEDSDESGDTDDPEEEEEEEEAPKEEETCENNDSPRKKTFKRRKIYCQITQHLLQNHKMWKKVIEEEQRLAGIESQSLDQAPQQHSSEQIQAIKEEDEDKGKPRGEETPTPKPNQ
Protocol: as §3, §4

[2] = test system: leukotriene D4-induced contraction of bronchial specimen; test: Suppression of leukotriene D4-induced contraction of bronchial specimen extracted from guinea pig; design: species or system guinea pig (male Hartley); details: leukotriene D4 1 nM
Protocol: as §1, §2

endothelin [3] = test: Prevention of lethal effect on mice induced by intravenous administration of endothelin; assay type: in vivo, mice (male ICR)
Protocol: Prevention of lethal effect on mice induced by intravenous administration of endothelin
Male ICR mice (6-7 weeks of age) were used without anesthetization. A solvent (physiological saline or 0.5% carboxymethylcellulose in physiological saline) or a medium, in which a drug had been dissolved or suspended, was administered in a dose of 50 μl /10 g body weight via the tail vein of the mice. Five minutes later, 5 nmol/kg of endothelin (Peptide Institute) dissolved in the same amount of a solvent was intravenously administered. The mice were monitored for 60 minutes after the endothelin administration and the number of dead animals and the latency (seconds) until death were determined. […] The test results of Compound 2 are representatively shown.

endothelin [4] = test: Effect against endothelin-induced pressor activity in rats; assay type: in vivo, rats (male SD); details: 10 mg/kg i.v., 10 min after endothelin 1 nmol/kg; blood pressure 20 min after endothelin
Protocol: Effect against endothelin-induced pressor activity in rats
Male SD rats (6 to 8 weeks of age) were anesthetized with sodium pentobarbital (60 mg/kg, i.p.), and a polyethylene catheter was inserted in the left carotid artery, which was connected to a pressure transducer (TP-400T, manufactured by Nihon Koden), and the blood pressure was measured via a polygraph (RM-6000 manufactured by Nihon Koden).
The pressor activity was induced by administering endothelin (1 nmol/kg) dissolved in a solvent, from the femoral vein. With regard to the animals ascertained to have increased blood pressure, a solvent or a medium, in which a drug had been dissolved or suspended, was administered in a dose of 1 ml/kg from the femoral vein of the rats 10 minutes after the endothelin administration, and the pressor activity was observed thereafter. The representative test results of Compound 2 are shown.
The results are shown in Table 14. in the Table, changes in blood pressure 20 minutes after the endothelin administration was compared with the value obtained before the endothelin administration.

[5] = test system: endothelin-induced contraction of extracted pig coronary artery; test: Suppression of endothelin-induced contraction in extracted pig coronary artery; details: 10 μM
Protocol: Suppression of endothelin-induced contraction in extracted pig coronary artery
Rectangular specimens of pig left anterior descendens coronary artery (endothelial cells removed) were used. The specimens were heated to 37° C. and suspended in a Tyrode's solution (10 ml) aerated with a 95% O2 -5% CO2 mixed gas under the resting tension of 1.5 g, and changes in isometric tension were determined. The specimens were contracted with 10 nM endothelin and when the reaction became stable, a drug dissolved in dimethyl sulfoxide was added to the. Tyrode's solution. The relaxation ratio was calculated relative to the base line before the contraction, which was taken as 100% relaxation. The representative test results of Compound 2 (administration concentration: 10 μM) are shown.

Acute toxicity in mice = assay type: in vivo, mice (ICR); details: mouse, in vivo, po, mice; estimated; read-out: oral lethal dose 50% (LD50)
Protocol: (§5) Acute toxicity of 1,8-naphthyridin-2-one derivative in mice
(§6) ICR mice (6-8 weeks of age, 7 per group) were fasted overnight and used for the experiment. A solvent (0.5% aqueous solution of carboxymethylcellulose) or a medium, in which a drug had been dissolved or suspended, was orally administered to mice in a dose of 0.1 ml/10 g body weight, and life or death of the animals was monitored for 72 hours after the administration. The representative test results of Compound 2 (300 mg/kg p.o.) are shown.

mice = test: Acute toxicity in mice; assay type: in vivo, mice (ICR); details: 300 mg/kg p.o., 72 hours
Protocol: as §5, §6

Structure (SMILES)	IC50 (PDE isozyme II)	IC50 (PDE isozyme I)	IC50 (PDE isozyme IV)	IC50 (PDE isozyme III)	Suppression of contraction % (HS) ([1]; 10 μM)	Suppression of contraction % (LT) ([2]; 10 μM)	Prevention of death: suppression of death (%) (endothelin [3]; 30 mg/kg i.v., 5 min before endothelin 5 nmol/kg i.v., 60 min monitoring)	Prevention of death: prolongation of latency (%) (endothelin [3]; 30 mg/kg i.v., 5 min before endothelin 5 nmol/kg i.v., ** P<0.01 relative to control, Tukey)	suppression of the death caused by endothelin and prolonging action of the latency until death (endothelin [3]; i.v.)	Endothelin-induced pressor activity, Suppression % (endothelin [4])	suppressive action on the endothelin-induced contraction [5]	Suppression % of endothelin-induced contraction ([5]; contracted with 10 nM endothelin, endothelial cells removed)	LD50 at 72 h (Acute toxicity in mice)	Death (number of animals) (mice; 7 animals administered)	acute toxicity test result (mice)	Suppression of contraction % (HS) ([1]; 1 μM)	Suppression of contraction % (LT) ([2]; 1 μM)
Cn1c(=O)c(-c2ccccc2)cc2cccnc21 [Compound 2]	39 µM	29 µM	1.6 µM	> 50 µM	93%	–	52%	305%	showed suppression of the death caused by endothelin and a prolonging action of the latency until death	38.5%	showed evident suppressive action	74%	≥ 300 mg/kg	0	tested negative in the acute toxicity test	–	–
O=c1c(-c2ccccn2)cc2cccnc2n1CC1CC1 [Compound 3]	18 µM	66 µM	1.4 µM	80 µM	–	–	–	–	–	–	–	–	–	–	–	60%	100%
C=CCn1c(=O)c(-c2ccc(OC)cc2)cc2cccnc21 [Compound 4]	> 50 µM	49 µM	0.38 µM	44 µM	100%	100%	–	–	–	–	–	–	–	–	–	–	–

More lines, main results first:

IC50 (PDE isozyme II)	IC50 (PDE isozyme I)	IC50 (PDE isozyme IV)	IC50 (PDE isozyme III)	Structure (SMILES)	Suppression of contraction % (HS) ([1]; 10 μM)	Suppression of contraction % (LT) ([2]; 10 μM)	Prevention of death: suppression of death (%) (endothelin [3]; 30 mg/kg i.v., 5 min before endothelin 5 nmol/kg i.v., 60 min monitoring)	Prevention of death: prolongation of latency (%) (endothelin [3]; 30 mg/kg i.v., 5 min before endothelin 5 nmol/kg i.v., ** P<0.01 relative to control, Tukey)	suppression of the death caused by endothelin and prolonging action of the latency until death (endothelin [3]; i.v.)	Endothelin-induced pressor activity, Suppression % (endothelin [4])	suppressive action on the endothelin-induced contraction [5]	Suppression % of endothelin-induced contraction ([5]; contracted with 10 nM endothelin, endothelial cells removed)	LD50 at 72 h (Acute toxicity in mice)	Death (number of animals) (mice; 7 animals administered)	acute toxicity test result (mice)	Suppression of contraction % (HS) ([1]; 1 μM)	Suppression of contraction % (LT) ([2]; 1 μM)
> 50 µM	> 50 µM	0.4 µM	> 50 µM	Cc1ccccc1-c1cc2cccnc2n(Cc2ccccc2F)c1=O [Compound 1, 1-(2-fluorobenzyl)-3-(2-methylphenyl)-1,8-naphthyridin-2(1H)-one]	100%	88%	–	–	–	–	–	–	–	–	–	–	–
> 50 µM	> 50 µM	0.35 µM	> 50 µM	CC(C)CCn1c(=O)c(-c2ccc(Cl)cc2)cc2cccnc21 [Compound 5]	–	–	–	–	–	–	–	–	–	–	–	–	–
